Measurements from patent US9853225B2, “Chalcogen-containing organic compound and a use thereof” (JNC CORPORATION, priority 2013, dated 2017).

Tests used:
[1] = Evaluation of chemical stability, UV-Vis spectra of film standing in atmospheric air; format: physicochemical; conditions: vacuum-deposited film 100 nanometers, one week in atmospheric air
Source text: A film having a thickness of 100 nanometers formed by performing vacuum deposition of the compound synthesized in Example 4 was allowed to stand for one week in atmospheric air. The results obtained by measuring UV-Vis spectra (device used: Jasco V-570 Spectrometer, made by JASCO Corporation) over time during the period are shown in FIG. 3. […] According to the above, the compound of the present invention is clearly found to be chemically stable too.

[2] = Evaluation of thermal stability, TG/DTA; format: physicochemical; conditions: heating 5° C. per minute
[3] = Evaluation of thermal stability, DSC; format: physicochemical; conditions: heating 5° C. per minute

Row | SMILES | melting point | change of UV-Vis spectrum of film [1] | 5% weight reduction temperature [2] | phase transition points [3]
1 | CCCCCCCCCCc1ccc2cc3oc4cc5c(cc4c3cc2c1)oc1cc2ccc(CCCCCCCCCC)cc2cc15 [Example 1, 2,10-didecyldinaphtho[2,3-d:2′,3′-d′]benzo[1,2-b:4,5-b′]difuran] | 316 to 317 °C |  |  | 
2 | CCCCCCCCCCc1ccc2cc3c(cc2c1)oc1cc2c(cc13)oc1cc3cc(CCCCCCCCCC)ccc3cc12 [Example 3, 3,11-didecyldinaphtho[2,3-d:2′,3′-d′]benzo[1,2-b:4,5-b′]difuran] | ≥ 350 °C |  |  | 
3 | CCCCCCc1ccc2cc3c(cc2c1)sc1cc2c(cc13)sc1cc3cc(CCCCCC)ccc3cc12 [Example 5, 3,11-dihexyldinaphtho[2,3-d:2′,3′-d′]benzo[1,2-b:4,5-b′]dithiophene] | > 300 °C |  |  | 
4 | CCCCCCCCCCc1ccc2cc3c(cc2c1)sc1cc2cc4c(cc2cc13)sc1cc2cc(CCCCCCCCCC)ccc2cc14 [Example 7] | ≥ 300 °C | no change of the spectrum was observed | 450 °C | no phase transition point was observed

Second part, the compound after the results:

Row | melting point | change of UV-Vis spectrum of film [1] | 5% weight reduction temperature [2] | phase transition points [3] | SMILES
5 | 285 to 286 °C |  |  |  | CCCCCCCCCCc1ccc2cc3sc4cc5c(cc4c3cc2c1)sc1cc2ccc(CCCCCCCCCC)cc2cc15 [Example 2, 2,10-didecyldinaphtho[2,3-d:2′,3′-d′]benzo[1,2-b:4,5-b′]dithiophene]
6 | 263 to 264 °C | no change of the spectrum was observed | 426 °C |  | CCCCCCCCCCc1ccc2cc3c(cc2c1)sc1cc2c(cc13)sc1cc3cc(CCCCCCCCCC)ccc3cc12 [Example 4, 3,11-didecyldinaphtho[2,3-d:2′,3′-d′]benzo[1,2-b:4,5-b′]dithiophene]
